Test [1] has as its target T1, NaV1.8 (Homo sapiens, UniProt Q9Y5Y9). The test can be described thus: Activity against NaV 1.8 channel (Table 4). Type of test: cell-based. As to the method: Compounds of the invention are useful as antagonists of voltage-gated sodium ion channels. Antagonist properties of test compounds were assessed as follows. Cells expressing the NaV of interest were placed into microtiter plates. After an incubation period, the cells were stained with fluorescent dyes sensitive to the transmembrane potential. The test compounds were added to the microtiter plate. The cells were stimulated with either a chemical or electrical means to evoke a NaV dependent membrane potential change from unblocked channels, which was detected and measured with trans-membrane potential-sensitive dyes. Antagonists were detected as a decreased membrane potential response to the stimulus. The optical membrane potential assay utilized voltage-sensitive FRET sensors described by Gonzalez and Tsien (See, Gonzalez, J. E. and R. Y. Tsien (1995) “Voltage sensing by fluorescence resonance energy transfer in single cells” Biophys J 69(4): 1272-80, and Gonzalez, J. E. and R. Y. Tsien (1997) “Improved indicators of cell membrane potential that use fluorescence resonance energy transfer” Chem Biol 4(4): 269-77) in combination with instrumentation for measuring fluorescence changes such as the Voltage/Ion Probe Reader (VIPR®) (See, Gonzalez, J. E., K. Oades, et al. (1999) “Cell-based assays and instrumentation for screening ion-channel targets” Drug Discov Today 4(9): 431-439).
24 hours before the assay on VIPR, CHO cells endogenously expressing a NaV1.2 type voltage-gated NaV are seeded in 96-well poly-lysine coated plates at 60,000 cells per well. […] The cells are then incubated for 20-30 minutes. • 7) Once the incubation is complete, the cells are ready to be assayed on VIPR® with a sodium addback protocol. […]
Control responses are obtained by performing assays in the presence of a compound with the desired properties (positive control), such as tetracaine, and in the absence of pharmacological agents (negative control). Responses to the negative (N) and positive (P) controls are calculated as above. […]

The conditions of test [2]: in vivo; cited from earlier work.
For test [3], the target named is T1, NaV1.8. The following applies: read-out: TTX IC50; cited from earlier work.

Broadly, the IC50 is the point on the concentration scale where inhibition reaches its midpoint.

Structures are written as SMILES. Where two headings read alike, the source gives them in different places.

T1 sequence (Q9Y5Y9 whole entry, looked up): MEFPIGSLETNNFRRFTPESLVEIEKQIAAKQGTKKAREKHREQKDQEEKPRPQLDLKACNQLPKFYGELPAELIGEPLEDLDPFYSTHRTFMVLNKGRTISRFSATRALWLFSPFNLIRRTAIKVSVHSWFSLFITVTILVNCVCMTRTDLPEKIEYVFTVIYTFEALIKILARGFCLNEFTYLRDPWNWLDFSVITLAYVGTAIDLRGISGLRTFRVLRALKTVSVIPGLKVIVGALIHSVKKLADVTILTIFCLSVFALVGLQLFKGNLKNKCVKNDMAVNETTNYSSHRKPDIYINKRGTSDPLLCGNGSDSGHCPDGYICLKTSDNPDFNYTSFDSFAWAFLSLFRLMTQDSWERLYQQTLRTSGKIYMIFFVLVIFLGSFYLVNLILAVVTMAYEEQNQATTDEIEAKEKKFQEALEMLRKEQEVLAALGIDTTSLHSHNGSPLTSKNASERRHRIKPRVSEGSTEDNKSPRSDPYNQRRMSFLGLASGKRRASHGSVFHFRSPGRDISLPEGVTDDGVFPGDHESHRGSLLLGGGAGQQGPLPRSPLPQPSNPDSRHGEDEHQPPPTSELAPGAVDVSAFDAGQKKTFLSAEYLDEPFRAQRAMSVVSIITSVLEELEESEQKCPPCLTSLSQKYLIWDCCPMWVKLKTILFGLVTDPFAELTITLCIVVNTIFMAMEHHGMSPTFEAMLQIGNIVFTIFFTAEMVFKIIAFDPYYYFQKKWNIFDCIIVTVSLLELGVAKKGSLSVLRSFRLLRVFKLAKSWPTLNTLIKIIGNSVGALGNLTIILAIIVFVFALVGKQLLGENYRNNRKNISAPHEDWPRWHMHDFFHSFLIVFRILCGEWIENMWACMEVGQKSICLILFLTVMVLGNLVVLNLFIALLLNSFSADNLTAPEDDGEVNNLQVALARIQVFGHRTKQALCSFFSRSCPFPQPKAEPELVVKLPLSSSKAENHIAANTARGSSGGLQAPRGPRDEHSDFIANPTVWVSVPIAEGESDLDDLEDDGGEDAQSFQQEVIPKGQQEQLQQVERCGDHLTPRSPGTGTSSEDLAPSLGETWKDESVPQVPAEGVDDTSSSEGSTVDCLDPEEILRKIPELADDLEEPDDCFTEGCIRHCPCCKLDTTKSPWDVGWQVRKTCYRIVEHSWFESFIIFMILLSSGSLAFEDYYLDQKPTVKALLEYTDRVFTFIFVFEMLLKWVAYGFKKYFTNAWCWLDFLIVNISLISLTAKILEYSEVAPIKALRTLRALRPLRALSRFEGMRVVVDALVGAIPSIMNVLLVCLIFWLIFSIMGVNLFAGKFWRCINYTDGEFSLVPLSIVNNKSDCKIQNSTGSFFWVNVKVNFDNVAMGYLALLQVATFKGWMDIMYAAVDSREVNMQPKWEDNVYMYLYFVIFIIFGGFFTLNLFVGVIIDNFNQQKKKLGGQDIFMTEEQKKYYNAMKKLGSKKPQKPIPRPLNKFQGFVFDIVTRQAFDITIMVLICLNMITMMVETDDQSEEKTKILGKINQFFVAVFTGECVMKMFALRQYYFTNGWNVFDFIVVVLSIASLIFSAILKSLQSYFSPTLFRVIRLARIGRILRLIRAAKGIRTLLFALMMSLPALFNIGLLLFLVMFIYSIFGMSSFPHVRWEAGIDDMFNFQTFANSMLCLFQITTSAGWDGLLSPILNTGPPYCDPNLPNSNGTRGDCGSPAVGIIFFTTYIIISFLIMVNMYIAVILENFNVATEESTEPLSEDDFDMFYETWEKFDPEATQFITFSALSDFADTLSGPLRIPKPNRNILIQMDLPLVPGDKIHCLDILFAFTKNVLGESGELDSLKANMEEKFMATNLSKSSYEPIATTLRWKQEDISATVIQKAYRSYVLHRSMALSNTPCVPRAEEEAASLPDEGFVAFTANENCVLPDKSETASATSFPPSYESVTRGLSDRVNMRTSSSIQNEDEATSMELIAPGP

As for `CC(C)CC(O)C(=O)N1CCN(c2cccc(-c3ccccc3O)c2)CC1` (centres unmarked) [Compound 1, 2-hydroxy-1-[4-[3-(2-hydroxyphenyl)phenyl]piperazin-1-yl]-4-methyl-pentan-1-one], at NaV1.8 [1], the IC50 was > 15 µM.
In the case of `CC(C)C[C@@H](O)C(=O)N1CCN(c2cccc(-c3ccccc3C(F)F)c2)CC1` [Compound 2, 1-[4-[3-[2-(difluoromethyl)phenyl]phenyl]piperazin-1-yl]-2-hydroxy-4-methyl-pentan-1-one], on NaV1.8 [1], the IC50 is < 10 µM.
On the same count and under the same terms, with `CC(C)COC(=O)N1CCN(c2cccc(-c3ccccc3O)c2)CC1` [Compound 3, 4-[3-(2-hydroxyphenyl)phenyl]piperazine-1-carboxylic acid isobutyl ester] the figure was > 15 µM.
`NCC1(CC(=O)O)CCCCC1` [Gabapentin]: in test [2], the “share of patients in which it works” value is 60%.
For the molecule `NC1=N[C@H](O)[C@H]2[C@H]3O[C@]4(O)O[C@@H]([C@@H](O)[C@@]2(N1)[C@@H]4O)[C@]3(O)CO` [TTX, tetrodotoxin], the IC50 on NaV1.8 [3] is > 50 µM.

(Values after US7705002B2, “Biaryls useful as modulators of ion channels” (Vertex Pharmaceuticals Incorporated, priority 2005, dated 2010).)
